Earlier results on two molecules are cited in paper PMC13151045, “Accounting for Differences in Plasma Protein Binding between Fish and Humans for Supporting Environmental Risk Assessment of Pharmaceuticals Using the Fish Plasma Model” (Environmental Science & Technology, 2026).

For this series the following is noted: minimum reported human therapeutic plasma concentration; ref footnote e of Table 4.

Turning to `CC1Cc2ccccc2N1NC(=O)c1ccc(Cl)c(S(N)(=O)=O)c1` (centres unmarked) [Indapamide], the “Human C max” value was 55.8 ng/mL. In the case of `CC(C)NCC(O)COc1cccc2ccccc12` (centres unmarked) [Propranolol], the “Human C max” value was 20 ng/mL.
